Earlier results in patent US20240423197A1, “KIT FOR PREPARING HERBICIDAL APPLICATION MIXTURES” (BAYER CROPSCIENCE LP, priority 2021, published 2024).

Conditions: known HLB value predetermined based on estimation by Griffin's method

| Substance | HLB |
| --- | --- |
| Polysorbate 80 (polyoxyethylene sorbitan monooleate) [Tween® 80] | 15 |
| Sorbitan monooleate [Span® 80] | 4.3 |
